Values quoted from earlier work, collected in patent US20200138845A1, “Combination Drug Therapy” (ViiV Healthcare Company, priority 2017, published 2020).

Test system: HIV-1 strains
Settings: antiviral activity against a broad range of HIV-1 strains

C[C@H]1CO[C@@H]2Cn3cc(C(=O)NCc4ccc(F)cc4F)c(=O)c(O)c3C(=O)N12 [Cabotegravir, cabotegravir]
potency: subnanomolar
